Experimental data from patent publication US9079915B2, “Thienyl- and furanyl-isoquinolinones and methods for using them” (priority 2008, dated 2015).

Legend:
Type in all cases: in vivo
[1] = system: Wistar rats, pMCAO; assay: Less severe permanent MCAO (pMCAO, distal MCA occlusion) model; conditions: pMCAO rat
Protocol: Adult male Wistar rats (Charles River, Wilmington, Mass.) 290-310 g were used in all studies. Animal procedures were approved by the Institutional Animal Care and Use Committee and conducted in accordance with the guidelines of the National Institutes of Health. Craniotomy was performed under isoflurane anesthesia. This was followed by electrocauterization of the distal portion of the MCA and a 90 minute ligation of both carotid arteries to limit collateral circulation during the initial stage of stroke, as described by Chen, et al. (Chen et al., 1986). Compound or vehicle, were administered as infusion starting at 4 hours post-induction of stroke and lasting 24 hours. Animals were maintained for long-term functional recovery assessment. Sensorimotor and reflex deficits were evaluated at 3-day intervals for 90 days according to (Bederson et al., 1986; De Ryck et al., 1989). Each trial included: postural test, two visual and two tactile forelimb placement tests and a hind limb placement test. Performance at each test was scored from 0 (no deficit) to 2 (severe deficit) for a maximum combined score of 12. Neurological scoring was performed in a blinded fashion. Values are expressed as means±SEM for the indicated number of animals or number of in vitro experiments. The statistical significance of differences between means was calculated by one-way ANOVA with post-hoc Fisher test or Dunnett's comparison to control or with Student's t-test analysis, as appropriate. Linear mix model was used to assess differences between treatment groups during 3-week neurological function recovery testing post-pMCAO. Statistical significance was assumed at p<0.05. A further efficacy study was conducted and employed a less severe permanent MCAO (pMCAO) model. This model, which utilized an occlusion of the distal portion of the middle cerebral artery, produced a much smaller injury contained within the sensorimotor cortex of the animal. The injury sustained in this model was less extensive but still involves the motor cortex and the rats can be assessed over the long-term (3 weeks to 3 months post-ischemia) for neurological function. In a first study with this model, rats were administered an IV bolus dose of 1, 3 or 10 mg/kg initiated at 4 hours post-ischemia and followed by 2 subsequent and equivalent doses at 7 and 10 hours. In a second study, rats were given a single IV bolus followed by a 24 hr IV infusion. Neurological function was tested every 2-3 days for 3 weeks post-MCAO.

[2] = system: Wistar rats, severe tMCAO; assay: Severe tMCAO model (MCA and both carotid arteries temporarily occluded); conditions: severe tMCAO rat, 48 hours
Protocol: (§1) Adult male Wistar rats (Charles River, Wilmington, Mass.) 290-310 g were used in all studies. Animal procedures were approved by the Institutional Animal Care and Use Committee and conducted in accordance with the guidelines of the National Institutes of Health.
Rats were anesthetized with 3% isoflurane in a mixture of 70% nitrous oxide and 30% oxygen through a nose cone. Core body temperature was maintained at 37° C. throughout the surgery using a heating lamp. tMCAO was induced for 90 min using the intraluminal suture method (Longa et al., Reversible middle cerebral artery occlusion without craniectomy in rats. Stroke 20:84-91, 1989). Briefly, an 18 mm length of 4-0 monofilament nylon suture coated with poly-L-lysine (Belayev et al., 1996) with a flame-rounded tip was inserted into the external carotid artery and advanced into the internal carotid to occlude the origin of the MCA Ninety minutes later rats were re-anesthetized, the suture withdrawn and the incision closed. Drug (test compound) or vehicle, were administered into the tail vein as a 3 IV bolus doses 3 hours apart in a volume of 2 ml/kg starting at 4 hours post-induction of stroke at various time intervals after the induction of stroke. Animals were tested for motor deficits using a scoring system described by (Bederson et al., 1986). A Bederson score of […] (maximum) at 90 minutes post-induction of tMCAO was a criterion for inclusion in the trial. Motor deficits and body weight were monitored at 24 and 48 hours post-tMCAO. Neurological deficits were assessed by blinded operators. Rats were sacrificed at 48 hours post-tMCAO. […]
After sacrifice, brains were extracted and 2 mm coronal sections were cut starting at 4 mm from the frontal pole using a rat brain matrix (Stoeling, Wood Dale, Ill.). […] Digitized images of sections were collected using the MCID image analysis system (Imaging Research, Inc. Ontario, Canada), and the area of infarct determined for each slice. Total infarct volume was calculated by multiplying a sum of areas by the distance between them in mm.
Values are expressed as means±SEM for the indicated number of animals or number of in vitro experiments. The statistical significance of differences between means was calculated by one-way ANOVA with post-hoc Fisher test or Dunnett's comparison to control or with Student's t-test analysis, as appropriate. […]
In a third assay, a severe tMCAO model was used (where both MCAO and carotid arteries were temporarily occluded) to obtain an injury. […] Doses of 1 or 10 mg/kg of 2-dimethylaminomethyl-9-hydroxythieno[2,3-c]isoquinolin-5(4H)-one were given at 4, 7 and 10 hours and animals were evaluated for infarct size, weight loss and neurological score at 48 hours post-MCAO.

[3] = system: Wistar rats, 90 min tMCAO; assay: Transient middle cerebral artery occlusion (tMCAO) model; conditions: tMCAO rat
Protocol: as §1
Rats were anesthetized with 3% isoflurane in a mixture of 70% nitrous oxide and 30% oxygen through a nose cone. Core body temperature was maintained at 37° C. throughout the surgery using a heating lamp. tMCAO was induced for 90 min using the intraluminal suture method (Longa et al., Reversible middle cerebral artery occlusion without craniectomy in rats. Stroke 20:84-91, 1989). Briefly, an 18 mm length of 4-0 monofilament nylon suture coated with poly-L-lysine (Belayev et al., 1996) with a flame-rounded tip was inserted into the external carotid artery and advanced into the internal carotid to occlude the origin of the MCA Ninety minutes later rats were re-anesthetized, the suture withdrawn and the incision closed. Drug (test compound) or vehicle, were administered into the tail vein as a 3 IV bolus doses 3 hours apart in a volume of 2 ml/kg starting at 4 hours post-induction of stroke at various time intervals after the induction of stroke. Animals were tested for motor deficits using a scoring system described by (Bederson et al., 1986). A Bederson score of 5 (maximum) at 90 minutes post-induction of tMCAO was a criterion for inclusion in the trial. Motor deficits and body weight were monitored at 24 and 48 hours post-tMCAO. Neurological deficits were assessed by blinded operators. Rats were sacrificed at 48 hours post-tMCAO. Sham-operated controls were subjected to identical surgical procedures but without advancement of the monofilament into the MCA branching point. The same model was also used, but in addition to occlusion of middle cerebral arteries, both carotid arteries were occluded (CCAO) for the same time 90 minutes. This was Severe Transient MCAO.
After sacrifice, brains were extracted and 2 mm coronal sections were cut starting at 4 mm from the frontal pole using a rat brain matrix (Stoeling, Wood Dale, Ill.). Sections were stained by immersion in a 2% solution of 2,3,5-triphenyl tetrazolium chloride at 37° C. for 10 minutes and then in 10% neutral formalin for preservation. Digitized images of sections were collected using the MCID image analysis system (Imaging Research, Inc. Ontario, Canada), and the area of infarct determined for each slice. Total infarct volume was calculated by multiplying a sum of areas by the distance between them in mm.
Values are expressed as means±SEM for the indicated number of animals or number of in vitro experiments. The statistical significance of differences between means was calculated by one-way ANOVA with post-hoc Fisher test or Dunnett's comparison to control or with Student's t-test analysis, as appropriate. Linear mix model was used to assess differences between treatment groups during 3-week neurological function recovery testing post-pMCAO. Statistical significance was assumed at p<0.05.
The first study was conducted using a transient middle cerebral artery occlusion (tMCAO) model. Rats were subjected to 90 minutes tMCAO and compound (2-dimethylaminomethyl-9-hydroxythieno[2,3-c]isoquinolin-5(4H)-one) was administered using 3 bolus injections at 4, 7 and 10 hours post-ischemia and an intraperitoneal (IP) route of administration. The three doses evaluated were 0.1, 1 and 10 mg/kg. Dosing was initiated at 4 hours post-MCAO because it is a clinically relevant therapeutic time window to treatment. Infarct volumes and neurological testing were carried out at 48 hours post-ischemia. This model produces an extensive unilateral lesion that involves the motor cortex and striatum. It is used to assess acute neuroprotection and neurological function in a reperfusion model of stroke. […]

[4] = system: Wistar rats, severe permanent MCAO; assay: Severe permanent MCAO model (intraluminal suture not removed); conditions: severe permanent MCAO rat, 3×1 mg/kg IP from 30 minutes post-ischemia, 24 hours
[5] = 11.7 mg/kg IV bolus then 0.9 mg/hr infusion for 24 hours

SMILES: CN(C)Cc1cc2c([nH]c(=O)c3cccc(O)c32)s1 [2-dimethylaminomethyl-9-hydroxythieno[2,3-c]isoquinolin-5(4H)-one]
- time for which neurological recovery was maintained following ischemia ([1]; 3.5 mg/kg IV bolus plus 2.5 mg/hr IV infusion for 24 hours): at least 3 months
- neurological deficits ([1]; 3.5 mg/kg IV bolus plus 2.5 mg/hr IV infusion for 24 hours, 39 days post-ischemia): significantly reduced neurological deficits
- neurological function, 10 mg/kg dose ([1]; multiple IV bolus 10 mg/kg, 21 days post-ischemia): approached efficacy
- neurological function ([1]; multiple IV bolus 1, 3 or 10 mg/kg at 4, 7 and 10 hours, 21 days post-ischemia): no significant improvement in neurological function
- infarct volume smaller than vehicle ([2]; 3 times 1 mg/kg IV bolus at 4, 7 and 10 hours): 22%
- infarct volume smaller than vehicle ([2]; 3 times 10 mg/kg IV bolus at 4, 7 and 10 hours): 19%
- ischemia-induced weight loss ([2]; 3 times 1 or 10 mg/kg IV bolus): reduction of ischemia-induced weight loss
- neurological deficits ([2]; 3 times 1 or 10 mg/kg IV bolus): reduction of neurological deficits
- neurological deficits ([3]; 1 mg/kg IP ×3, 48 hr post-MCAO): significantly reduced neurological deficits
- effect on neurological deficits, weight loss and infarct volume ([3]; 3.9 mg/kg IV bolus then 0.3 mg/hr infusion for 24 hours (lower dose)): No effect was seen
- ischemic-induced weight loss [3, 5]: significant reduction in ischemic-induced weight loss
- reduction in infarct volume (small but insignificant) [3, 5]: 10%
- neurological deficits ([3]; 11.7 mg/kg IV bolus then 0.9 mg/hr infusion for 24 hours from 4 hours post-tMCAO, 48 hours): significant reduction in neurological deficits
- reduction of infarct volume vs vehicle ([3]; 3×0.1 mg/kg IP at 4, 7 and 10 hours post-ischemia, 48 hours): 20%
- reduction of infarct volume vs vehicle ([3]; 3×1 mg/kg IP at 4, 7 and 10 hours post-ischemia, 48 hours): 55%
- reduction of infarct volume vs vehicle ([3]; 3×10 mg/kg IP at 4, 7 and 10 hours post-ischemia, 48 hours): 66%
- infarct volume smaller than vehicle [4]: 42%
